According to patent US20250051419A1, “POLYPEPTIDE MODULATORS” (Georgiamune Inc., priority 2021, published 2025):

Tests used:
[1] = molecular target: T1, PD-1 (Mus musculus, UniProt Q02242); assay: Immunoprecipitation of PD-1 and Western blot of PD-1 bound ITK and SHP2; type: cell-based; conditions: pre-activated primary mouse CD4 T cells, PD-1 immune-precipitated 5 minutes after treatment, Western blot, compared to control Ab
T1 construct: endogenous in cells
T1 sequence (Q02242 25-288): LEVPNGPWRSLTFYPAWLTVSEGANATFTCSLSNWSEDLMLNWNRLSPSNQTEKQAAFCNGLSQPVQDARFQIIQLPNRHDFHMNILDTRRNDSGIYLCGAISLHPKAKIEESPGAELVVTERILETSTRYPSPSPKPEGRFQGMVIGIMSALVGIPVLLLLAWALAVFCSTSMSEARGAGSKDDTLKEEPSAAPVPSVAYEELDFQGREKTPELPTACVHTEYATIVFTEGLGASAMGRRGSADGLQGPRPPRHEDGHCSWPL
Procedure: FIGS. 4 and 5 show the modulation of ITK and its effects on immune response. […] However, when there is more ITK than SHP2, a stimulatory signal was generated. When there is the same amount of ITK and SHP2, the immune response was either inhibitory or activating. […] Thus, an activator of ITK would have the effect of enhancing an immune response and an inhibitor of ITK can suppress the immune response. […] PD-1 was immune-precipitated with beads 5 minutes after pre-activated primary mouse CD4 T cells were treated with PD-L1-IgG, PD-L2-IgG or anti-PD-1 mouse blocking antibody (clone RMP1-14).

[2] = test system: human CD4 T cells; assay: Flow cytometry of Tcm and Tte after PD-L2-IgG treatment of stimulated T cells; type: cell-based; conditions: 25 μg/mL, 48 hours after treatment, vs untreated, p<0.05
Procedure: After 72 hours, the cells were treated with PD-L2-IgG at concentration of 25 μg/mL. Control wells were left untreated. Forty-eight hours after treatment, the cells were collected, washed and stained with the fluorophore labeled antibodies, and analyzed by flow cytometry. Tom were defined as CD45RO^high/CD62L^high/CD45RA^low. Exhausted T cells or terminal effector T cells (“Tte”) were defined as CD45RO^low/CD62L^low/CD45RA^high.

## PD-L2-IgG: PD-L2 fused to IgG, used to treat T cells; sequence not stated at the place
[1]
  ITK/SHP2 ratio (PD-1 bound ITK and SHP2): increased
[2]
  Tcm (CD45RO high/CD62L high/CD45RA low): significant increase
  Tte (exhausted or terminal effector T cells, CD45RO low/CD62L low/CD45RA high): significant decrease
